From patent US11136321B2, “Tricyclic compounds” (ALIGOS THERAPEUTICS, INC., priority 2019, dated 2021)

What follows are compounds tested on HBV (assay: HBV-DNA antiviral assay using HepG2.117 cells). Details: Hepatitis B virus, 72 h, intracellular HBV DNA by qPCR, 3 days incubation.
Assay type: cell-based, genotype D HBV
Experimental: The following assay procedure describes the HBV antiviral assay, using HepG2.117 cells, which carry a stably integrated genotype D HBV genome under the control of a Tet-off promoter, and intracellular HBV DNA quantification as endpoint. Cell viability is assessed in parallel by measuring the intracellular ATP content using ATPlite (Perkin Elmer).
On day 0, HepG2.117 cells (which are maintained in routine cell culture with doxycycline present in the medium at a final concentration of 1 μg/mL) were seeded in 96-well plates (white with clear bottom) at a density of 2.0×10^4 cells/well (0.1 mL/well) in medium without doxycycline to induce pgRNA transcription and subsequent formation of HBV particles. The cells were incubated at 37° C. and 5% CO2.
On day 1, medium was removed from each well, the test articles were diluted in culture medium without doxcycyline and 100 μL was added to cell culture wells (9 concentrations, 4-fold dilution). For each plate, 6 untreated (merely DMSO) wells were included. The final concentration of DMSO in the culture medium was 2%. Each plate was prepared in duplicate (one for HBV DNA extraction, one for ATPlite measurement). The cells were incubated at 37° C. and 5% CO2 for 3 days.
On day 4, cell viability was assessed using ATPlite and cell lysates were prepared for HBV DNA extraction and subsequent quantification by qPCR.
Medium was removed from each well and 100 μL of 0.33% NP-40 in H2O was added to each well. Plates were sealed, incubated at 4° C. for 5 mins, vortexed extensively and centrifuged briefly. Next, 35 μL of lysate was added to 65 μL QuickExtract DNA Extraction Solution (Epicentre) in a PCR plate for each well. PCR plate was incubated at 65° C. for 6 mins, 98° C. for 2 mins and finally cooled to 4° C. HBV DNA was then quantified by qPCR with HBV-specific primers and probes as specified in Table 1 using the Bio-Rad SSOAdvanced Universal Probes Supermix on a CFX96 machine (Bio-Rad). The PCR cycle program consisted of 95° C. for 3 mins, followed by 40 cycles at 95° C. for 10 sec and 60° C. for 30 sec.
A DNA standard was prepared by dilution of an IDT gBlock corresponding to the amplicon with concentrations ranging from 10^2 to 10^8 copies/input (i.e. per 4 μL) and used to generate a standard curve by plotting Cq values vs. HBV DNA standard concentration. The quantity of HBV DNA in each sample was determined by interpolating from the standard curve.
Cell viability was calculated as follows: % Cell viability=(luminescence value of test sample)/(average luminescence value of 2% DMSO control)×100%. HBV DNA inhibition was calculated as follows: 100−(HBV DNA copy number of test sample)/(average HBV DNA copy number of 2% DMSO control)×100%. No normalization to entecavir was required due to the excellent dynamic window of this assay. The CC50, EC50 and EC90 values were determined by dose-response curves fitted by GraphPad Prism using “log (agonist) vs. response—Variable slope”.

SMILES	EC50 [nM]
N#Cc1cc(C(=O)N2CCc3c(n4ncc(Cc5ccccc5)c4n(-c4ccc(C(N)=O)cc4)c3=O)C2)ccc1Br [Compound 82, 4-[5-benzyl-12-(4-bromo-3-cyano-benzoyl)-8-oxo-2,3,7,12-tetrazatricyclo [7.4.0.0 2,6]trideca-1(9),3,5-trien-7-yl] benzamide]	> 5000
CNC(=O)c1ccc(-n2c(=O)c3c(n4ncc(Cc5ccc(OC)cc5)c24)CN(C(=O)c2ccc(Br)c(C#N)c2)CC3)cc1 [Compound 89, 4-[12-(4-bromo-3-cyano-benzoyl)-5-[(4-methoxyphenyl)methyl]-8-oxo-2,3,7,12-tetrazatricyclo [7.4.0.0 2,6]trideca-1(9),3,5-trien-7-yl]-N-methyl-benzamide]	≤ 100
CNC(=O)c1ccc(-n2c(=O)c3c(n4ncc(NC(C)c5ccccc5)c24)CN(C(=O)c2ccc(Br)c(C#N)c2)CC3)cc1 (centres unmarked) [Compound 83, 4-[12-(4-bromo-3-cyano-benzoyl)-8-oxo-5-(1-phenylethylamino)-2,3,7,12-tetrazatricyclo [7.4.0.0 2,6]trideca-1(9),3,5-trien-7-yl]-N-methyl-benzamide]	100 to 500
CNC(=O)c1ccc(-n2c(=O)c3c(n4ncc(Cc5ccc(F)cc5)c24)CN(C(=O)c2ccc(Br)c(Cl)c2)CC3)cc1 [Compound 59, 4-[12-(4-bromo-3-chloro-benzoyl)-5-[(4-fluorophenyl)methyl]-8-oxo-2,3,7,12-tetrazatricyclo [7.4.0.0 2,6]trideca-1(9),3,5-trien-7-yl]-N-methyl-benzamide]	≤ 100
COc1ccc(-n2c(=O)c3c(n4ncc(NC(=O)Cc5ccccc5)c24)CN(C(=O)c2ccc(Cl)c(Cl)c2)CC3)cc1 [Compound 23, N-[12-(3,4-dichlorobenzoyl)-7-(4-methoxyphenyl)-8-oxo-2,3,7,12-tetrazatricyclo [7.4.0.0 2,6]trideca-1(9),3,5-trien-5-yl]-2-phenyl-acetamide]	500 to 5000
CC(C)NC(=O)c1ccc(-n2c(=O)c3c(n4ncc(Cc5ccccc5)c24)CN(C(=O)c2ccc(Br)c(C#N)c2)CC3)cc1 [Compound 65, 4-[5-benzyl-12-(4-bromo-3-cyano-benzoyl)-8-oxo-2,3,7,12-tetrazatricyclo [7.4.0.0 2,6]trideca-1(9),3,5-trien-7-yl]-N-isopropyl-benzamide]	500 to 5000
O=C(c1ccc(Br)cc1)N1CCc2c(n3nccc3n(-c3ccccc3)c2=O)C1 [Compound 3, 8-(4-bromobenzoyl)-4-phenyl-6,7,8,9-tetrahydropyrazolo[1,5-a]pyrido[4,3-e]pyrimidin-5(4H)-one]	> 5000
Cn1c(=O)c2c(n3nccc13)CN(C(=O)Nc1ccc(F)c(Cl)c1)CC2 [Compound 1, N-(3-chloro-4-fluorophenyl)-4-methyl-5-oxo-5,6,7,9-tetrahydropyrazolo[1,5-a]pyrido[4,3-e]pyrimidine-8(4H)-carboxamide]	500 to 5000
O=C(Nc1ccc(F)c(Cl)c1)N1CCc2c(n3nccc3n(Cc3ccccc3)c2=O)C1 [Compound 2, 4-benzyl-N-(3-chloro-4-fluorophenyl)-5-oxo-5,6,7,9-tetrahydropyrazolo[1,5-a]pyrido[4,3-e]pyrimidine-8(4H)-carboxamide]	500 to 5000
O=C(c1ccc(Br)c(F)c1)N1CCc2c(n3ncc(Cc4ccccc4)c3n(-c3ccccc3)c2=O)C1 [Compound 9, 5-benzyl-12-(4-bromo-3-fluorobenzoyl)-7-phenyl-2,3,7,12-tetraazatricyclo[7.4.0.0^[2,6]]trideca-1(9),3,5-trien-8-one]	100 to 500
O=C(c1ccc(Cl)c(Cl)c1)N1CCc2c(n3ncc(Cc4ccccc4)c3n(-c3ccccc3)c2=O)C1 [Compound 27, 5-benzyl-12-(3,4-dichlorobenzoyl)-7-phenyl-2,3,7,12-tetrazatricyclo [7.4.0.0 2,6] trideca-1(9),3,5-trien-8-one]	≤ 100
CNC(=O)c1ccc(-n2c(=O)c3c(n4ncc(Cc5ccccc5)c24)CN(C(=O)c2ccc(Br)c(C#N)c2)[C@H](C)C3)cc1 (stereo in doubt) [Compound 81, N-methyl-4-[rac-(11R)-5-benzyl-12-(4-bromo-3-cyano-benzoyl)-11-methyl-8-oxo-2,3,7,12-tetrazatricyclo [7.4.0.0 2,6]trideca-1(9),3,5-trien-7-yl] benzamide]	≤ 100
CNC(=O)c1ccc(-n2c(=O)c3c(n4ncc(NCc5ccc(OC(F)(F)F)cc5)c24)CN(C(=O)c2ccc(Cl)c(Cl)c2)CC3)cc1 [Compound 44, 4-[12-(3,4-dichlorobenzoyl)-8-oxo-5-[[4-(trifluoromethoxy)phenyl]methylamino]-2,3,7,12-tetrazatricyclo [7.4.0.0 2,6]trideca-1(9),3,5-trien-7-yl]-N-methyl-benzamide]	100 to 500
CNC(=O)c1ccc(-n2c(=O)c3c(n4ncc(Cc5ccccc5)c24)CN(C(=O)c2ccc(Br)c(Cl)c2)CC3)cc1Cl [Compound 38, 4-[5-benzyl-12-(4-bromo-3-chloro-benzoyl)-8-oxo-2,3,7,12-tetrazatricyclo [7.4.0.0 2,6]trideca-1(9),3,5-trien-7-yl]-2-chloro-N-methyl-benzamide]	≤ 100
Cc1cnn2c3c(c(=O)n(-c4ccccc4)c12)CCN(C(=O)c1ccc(Br)c(Cl)c1)C3 [Compound 10, 12-(4-bromo-3-chlorobenzoyl)-5-methyl-7-phenyl-2,3,7,12-tetraazatricyclo[7.4.0.0^[2,6]]trideca-1(9),3,5-trien-8-one]	100 to 500

Same assay, conditions: intracellular HBV DNA by qPCR, 3 days incubation

SMILES	EC50 [nM]
CC(C)NC(=O)c1cnn2c3c(c(=O)n(-c4ccccc4)c12)CCN(C(=O)c1ccc(Cl)c(Cl)c1)C3 [Compound 16, 12-(3,4-dichlorobenzoyl)-N-isopropyl-8-oxo-7-phenyl-2,3,7,12-tetraazatricyclo[7.4.0.0^[2,6]]trideca-1(9),3,5-triene-5-carboxamide]	> 5000
COc1ccc(-n2c(=O)c3c(n4ncc(Cc5ccccc5)c24)CN(C(=O)c2ccc(Cl)c(Cl)c2)CC3)cc1 [Compound 24, 5-benzyl-12-(3,4-dichlorobenzoyl)-7-(4-methoxyphenyl)-2,3,7,12-tetraazatricyclo[7.4.0.0^[2,6]]trideca-1(9),3,5-trien-8-one]	100 to 500
CC(C)CC(=O)Nc1cnn2c3c(c(=O)n(-c4ccccc4)c12)CCN(C(=O)c1ccc(Cl)c(Cl)c1)C3 [Compound 17, N-[12-(3,4-dichlorobenzoyl)-8-oxo-7-phenyl-2,3,7,12-tetraazatricyclo[7.4.0.0^[2,6]]trideca-1(9),3,5-trien-5-yl]-3-methylbutanamide]	> 5000
CNC(=O)c1ccc(-n2c(=O)c3c(n4ncc(Cc5ccccc5)c24)CN(C(=O)c2ccc(Br)c(Cl)c2)CC3)cc1 [Compound 29, 4-[5-benzyl-12-(4-bromo-3-chlorobenzoyl)-8-oxo-2,3,7,12-tetraazatricyclo[7.4.0.0^[2,6]]trideca-1(9),3,5-trien-7-yl]-N-methylbenzamide]	≤ 100
CNC(=O)c1ccc(-n2c(=O)c3c(n4ncc(Cc5ccc(OC(F)(F)F)cc5)c24)CN(C(=O)c2ccc(Br)c(Cl)c2)CC3)cc1 [Compound 35, 4-[12-(4-bromo-3-chlorobenzoyl)-8-oxo-5-[[4-(trifluoromethoxy)phenyl]methyl]-2,3,7,12-tetraazatricyclo[7.4.0.0^[2,6]]trideca-1(9),3,5-trien-7-yl]-N-methylbenzamide]	≤ 100
